The text below walks through data of patent publication US20110226998A1, “ELECTROWETTING ELEMENTS” (LIQUAVISTA B.V., priority 2008, published 2011).

Molecules are shown by their SMILES.

A short description of one data set: Photo-bleaching test according to standard IEC 60068-2-9, Atlas Suntest CPS/XLS+ instrument, reflectance measurement. The class given is physicochemical. The note with it: sample thickness 4 micrometres, 1 centimetre diameter, 0.1M in decane; exposure 0, 4, 24, 48, 120 and 240 hours. From the text:
Exemplary dye compounds will now be described below, including a schematic illustration of each dye. Whilst exemplary anthraquinone dyes are given below, it is to be appreciated that corresponding napthoquinone dyes are envisaged also within the scope of the present invention, namely including napthoquinones having the same molecular structure of the right hand (as illustrated herein) benzene ring as the molecular structure of the right hand (as illustrated herein) benzene ring of the anthrquinone examples described below. The stereochemistry of each dye is not limited to that shown; it is to be appreciated that molecular structures of the dyes having different stereochemistry are within the scope of the dyes of the invention. […] For each of the exemplary dyes, data is given as evidence of their reduced photo-bleaching properties. […] The periods of time given for testing are scalable to equate to a number of weeks of exposing the tested dyes to solar radiation. For example, the period of exposure of 240 hours given below approximately equates to continuously exposing the dyes to solar radiation in London, UK, for 14 weeks, taking an average yearly solar radiation quantity as 1,000 kWh/m^2/year. In reality, taking into account that a display application is not used or is used inside for a major part of the time, this equates to a few years of practical lifetime.
This dye is cyan in colour. Upon testing, a sample of the dye with a thickness of 4 micrometres, a circular area of 1 centimetre diameter and a concentration of 0.1M in decane, was measured for reflectance of radiation with wavelengths from 380 to 750 nano-metres, at 5 nano-metre increments. This test was run separately for different time periods, namely for 0, 4, 24, 48, 120 and 240 hours. The reflectance of the dye for the range of wavelengths tested was approximately the same for each different testing time period.
This dye is purple in colour. Upon testing, a sample of the dye with a thickness of 4 micrometres, a circular area of 1 centimetre diameter and a concentration of 0.1M in decane, was measured for reflectance of radiation with wavelengths from 380 to 750 nano-metres, at 5 nano-metre increments. This test was run separately for different time periods, namely for 0, 4, 24, 48, and 120 hours. The reflectance of the dye for the range of wavelengths tested was approximately the same for each different testing time period.
This dye is magenta in colour. Upon testing, a sample of the dye with a thickness of 4 micrometres, a circular area of 1 centimetre diameter and a concentration of 0.1M in decane, was measured for reflectance of radiation with wavelengths from 380 to 750 nano-metres, at 5 nano-metre increments. This test was run separately for different time periods, namely for 0, 4, 24, 48, 120 and 240 hours. The reflectance of the dye for the range of wavelengths tested was approximately the same for each different testing time period.
This dye is blue in colour. Upon testing, a sample of the dye with a thickness of 4 micrometres, a circular area of 1 centimetre diameter and a concentration of 0.1M in decane, was measured for reflectance of radiation with wavelengths from 380 to 750 nano-metres, at 5 nano-metre increments. This test was run separately for different time periods, namely for 0, 4, 24, 48, and 120 hours. The reflectance of the dye for the range of wavelengths tested was approximately the same for each different testing time period.
This dye is blue/cyan in colour. Upon testing, a sample of the dye with a thickness of 4 micrometres, a circular area of 1 centimetre diameter and a concentration of 0.1M in decane, was measured for reflectance of radiation with wavelengths from 380 to 750 nano-metres, at 5 nano-metre increments. This test was run separately for different time periods, namely for 0, 4, 24, 48, and 120 hours. The reflectance of the dye for the range of wavelengths tested was approximately the same for each different testing time period.
Consider `CCCCCCCc1cc(NC2CCCCC2)c2c(c1NC1CCCCC1)C(=O)c1ccccc1C2=O` [Example 4], for which the “photo-bleaching (reflectance of radiation, 380 to 750 nano-metres, compared over testing time periods)” value was “does not exhibit photo-bleaching”.
Turning to `CCCCC(CC)Cc1cc(NC2CCCCC2)c2c(c1NC1CCCCC1)C(=O)c1ccccc1C2=O` (stereo not drawn) [Example 3], the “photo-bleaching (reflectance of radiation, 380 to 750 nano-metres, compared over testing time periods)” value is on record as “does not exhibit photo-bleaching”.
The same measure, in the same setting: the value for `CCCCC(CC)CNc1ccc(NCC(CC)CCCC)c2c1C(=O)c1ccccc1C2=O` (stereo not drawn) [Example 1] was “does not exhibit photo-bleaching”.

The data set is the same for the next values; noted with them: sample thickness 4 micrometres, 1 centimetre diameter, 0.1M in decane; exposure 0, 4, 24, 48, and 120 hours.
`CCCCC(CC)CNc1cc2c(c3c1C(=O)c1ccccc1C3=O)NC1CC(C)CCC1C2(C)C` (stereo not drawn) [Example 6]: the “photo-bleaching (reflectance of radiation, 380 to 750 nano-metres, compared over testing time periods)” value was “does not exhibit photo-bleaching”.
Still for that read-out and setting: the value for `CCCCC(CC)CNc1cc(CC(CC)CCCC)c(O)c2c1C(=O)c1ccccc1C2=O` (stereo not drawn) [Example 2] was “does not exhibit photo-bleaching”; that for `CCCCC(CC)CNc1cc(CC(CC)CCCC)c(N)c2c1C(=O)c1ccccc1C2=O` (stereo not drawn) [Example 5] was “does not exhibit photo-bleaching”.
